“Also recorded” adds a separate entry of the source. Counter-ions that a name gives are not always drawn.
How the values were obtained:
HeLa cells [1] = assay: Cell viability by trypan blue dye exclusion assay; format: cell-based; conditions: FIG. 1A
Procedure: (§1) Cell culture: HeLa cells were cultured in Dulbecco's modified Eagle's medium supplemented with 10% fetal bovine serum and 50 μg/ml kanamycin at 37° C. in 5% CO2 in air.
(§2) Assay for apoptotic processes: Cell viability was determined by dye exclusion assay using 0.1% trypan blue. DNA fragmentation was analyzed as described previously (Kawauchi, K. et al. (1997) Biochem. Biophys. Res. Commun. 237, 543-547). In the caspase-3 assay, cells were disrupted by freeze-thaw in an extraction buffer (50 mM Tris-HCl, pH7.4, 1 mM EGTA, 5 mM EDTA, 5 mM MgCl2, 1 mM APMSF, 10 μg/ml pepstatin, 10 μg/ml leupeptin, and 1 mM DTT). Then the suspension was centrifuged at 15,000 rpm for 20 min, and the supernatants obtained were incubated at 37° C. for 60 min in a reaction buffer (50 mM Tris-HCl, pH7.4, 1 mM EDTA, 10 mM EGTA) with 20 μM of the fluorogenic substrate DEVD-AFC (Peptide Institute, Inc., Japan). Cleavage of the substrates was quantified by measuring the fluorescence of 7-amino-4-trifluomethyl coumarin released using a spectrofluorometer (Shimadzu RF5000) with excitation at 380 mn and emission at 460 nm.

IκB kinase (IKK) = target: T1, IκB kinase (IKK) (Homo sapiens, UniProt O14920+O15111); assay: IκB kinase activity in vitro; format: biochemical; conditions: FIG. 14, hydrochloride
T1 sequence (O15111 1-745): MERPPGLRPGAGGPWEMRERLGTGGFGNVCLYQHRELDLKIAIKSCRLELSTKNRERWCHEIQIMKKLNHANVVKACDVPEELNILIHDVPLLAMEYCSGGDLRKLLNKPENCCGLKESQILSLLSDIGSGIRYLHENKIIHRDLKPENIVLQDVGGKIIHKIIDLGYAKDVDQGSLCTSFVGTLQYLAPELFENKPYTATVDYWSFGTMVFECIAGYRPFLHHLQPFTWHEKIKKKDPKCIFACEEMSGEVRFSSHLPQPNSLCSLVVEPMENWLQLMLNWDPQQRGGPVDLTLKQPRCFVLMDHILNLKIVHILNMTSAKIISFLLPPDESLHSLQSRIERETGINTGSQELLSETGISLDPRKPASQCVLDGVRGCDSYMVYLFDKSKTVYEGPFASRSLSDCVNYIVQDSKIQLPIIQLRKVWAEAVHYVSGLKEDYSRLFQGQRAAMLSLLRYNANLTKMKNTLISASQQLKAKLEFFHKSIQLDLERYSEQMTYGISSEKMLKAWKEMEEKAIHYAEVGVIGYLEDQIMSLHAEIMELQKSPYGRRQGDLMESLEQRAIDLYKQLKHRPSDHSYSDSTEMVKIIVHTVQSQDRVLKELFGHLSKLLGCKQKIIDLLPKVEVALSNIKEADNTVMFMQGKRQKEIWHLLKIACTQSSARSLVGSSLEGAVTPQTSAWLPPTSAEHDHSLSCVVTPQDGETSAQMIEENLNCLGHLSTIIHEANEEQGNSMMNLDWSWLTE
T1 sequence (O14920 1-756): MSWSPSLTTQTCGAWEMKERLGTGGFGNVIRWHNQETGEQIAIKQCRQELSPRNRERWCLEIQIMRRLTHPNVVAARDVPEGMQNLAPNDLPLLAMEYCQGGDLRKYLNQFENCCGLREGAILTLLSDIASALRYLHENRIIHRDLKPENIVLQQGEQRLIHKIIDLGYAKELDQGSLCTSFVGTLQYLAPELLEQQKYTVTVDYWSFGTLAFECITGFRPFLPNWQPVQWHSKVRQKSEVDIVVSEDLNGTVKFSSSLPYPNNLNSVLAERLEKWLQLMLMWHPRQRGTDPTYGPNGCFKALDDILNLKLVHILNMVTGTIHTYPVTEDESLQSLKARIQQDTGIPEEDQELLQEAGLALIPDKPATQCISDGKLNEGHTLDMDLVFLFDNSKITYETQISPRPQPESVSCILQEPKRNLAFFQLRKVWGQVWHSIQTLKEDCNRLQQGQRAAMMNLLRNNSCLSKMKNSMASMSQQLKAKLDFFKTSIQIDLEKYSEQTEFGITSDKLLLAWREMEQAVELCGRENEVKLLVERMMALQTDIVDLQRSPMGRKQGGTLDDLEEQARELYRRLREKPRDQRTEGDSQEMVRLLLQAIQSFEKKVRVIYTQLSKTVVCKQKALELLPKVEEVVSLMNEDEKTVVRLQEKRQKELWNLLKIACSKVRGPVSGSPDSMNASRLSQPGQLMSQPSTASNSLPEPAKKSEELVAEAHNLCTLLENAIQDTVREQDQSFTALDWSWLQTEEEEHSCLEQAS
From the text: Accordingly, in order to identify the p65 kinase which cPrG-HCl suppressed, the effect of cPrG-HCl on PKA (FIG. 13), casein kinase II (CKII) (FIG. 12), and IκB kinase (IKK) (FIG. 14) was studied in vitro.

AP-1 = conditions: earlier abstract of the inventors (Kamata et al., 2000); cited from earlier work
HeLa cells [2] = assay: DNA fragmentation (apoptosis) in HeLa cells; format: cell-based; conditions: cPrG-HCl together with TNFα, FIG. 1A, hydrochloride
Procedure: as §1, §2
HeLa cells were treated with TNFα and cPrG.HCl and the effect of cPrG.HCl on apoptosis was examined by measuring DNA fragmentation and survivability.

CMV promoter = assay: CMV promoter-dependent luciferase gene expression (control); format: cell-based; conditions: FIG. 2B
Procedure: Luciferase gene reporter assay and Kinase assays of IKK: HeLa cells were transfected with the reporter plasmids described above using Lipofectin (GIBCO BRL). After 24-48 hr, the luciferase activity was determined using the Luciferase Assay System (Promega). The kinase activity of IKKα and IKKβ were analyzed by immune complex kinase assay as described previously (Oka, S., Kamata, H., Kamata, K., Yagisawa, H. and Hirata, H. (2000) FEBS Lett. 472, 196-202). The substrates was using GST-IκBα(1-55) or GST-p65(399-551).

JNK = JNK kinase activity after immune precipitation from HeLa cells; format: cell-based; conditions: 1 μM, TNFα or PMA 15 minutes, FIG. 9A, hydrochloride
Procedure: HeLa cells were pretreated with cPrG-HCl (1 μM) for 1 hour and then stimulated with TNFα (20 ng/ml) or PMA (1 μg/ml) for 15 minutes, and JNK recovered by an immune precipitation method was then reacted with [γ-^32P]-ATP and a substrate GST-c-Jun, after which SDS-PAGE was carried out and the resulting gel was analyzed by an imaging analyzer. Further, HeLa cells were pretreated with cPrG-HCl (1 μM) for 1 hour and then stimulated with TNFα (20 ng/ml) for 15 minutes, a cell extract was recovered and subjected to SDS-PAGE and Western blotting was carried out using p38 phosphorylation antibody.

COC1=CC(c2ccc[nH]2)=N/C1=C\c1[nH]c(C)c2c1C(C)CCC2 (stereo not shown) [cPrG-HCl, Cycloprodigiosin hydrochloride]
cell viability (HeLa cells [1]; cPrG-HCl present upon TNFα stimulation): about 65% | cell viability (HeLa cells [1]; cPrG-HCl treatment alone): slightly decreased | effect on IκB kinase (IKK) activity (IκB kinase (IKK)): does not directly suppress; also recorded: no suppressive effect | gene expression induction by AP-1 (AP-1): significantly suppressed | DNA fragmentation (HeLa cells [2]): marked DNA fragmentation; also recorded: significant DNA fragmentation | expression of the CMV promoter-dependent luciferase gene (CMV promoter): did not inhibit | effect on JNK kinase (JNK): suppressed neither; also recorded: no suppression

Reference: US20040048791A1, “Method for treating neoplastic cells using cycloprodigiosin or salt thereof” (priority 2002, published 2004)
